Test results from patent US20060004012A1, “Compounds, pharmaceutical compositions and methods for use in treating metabolic disorders” (priority 2004, published 2006).

Each compound was assayed against T1, human GPR40 (Homo sapiens, UniProt O14842) (assay: Cell-based aequorin assay using human GPR40). Details: activation of human GPR40; CHO cells transfected with GPR40 and aequorin expression vectors; aequorin luminescence, area-under-curve 2-20 seconds; read-out: Relative EC50.
T1 construct: expressed in transfected cells; host or cells: CHO cells, transiently transfected with Lipofectamine 2000 and co-transfected with an aequorin expression vector (Euroscreen)
T1 sequence (O14842 whole entry): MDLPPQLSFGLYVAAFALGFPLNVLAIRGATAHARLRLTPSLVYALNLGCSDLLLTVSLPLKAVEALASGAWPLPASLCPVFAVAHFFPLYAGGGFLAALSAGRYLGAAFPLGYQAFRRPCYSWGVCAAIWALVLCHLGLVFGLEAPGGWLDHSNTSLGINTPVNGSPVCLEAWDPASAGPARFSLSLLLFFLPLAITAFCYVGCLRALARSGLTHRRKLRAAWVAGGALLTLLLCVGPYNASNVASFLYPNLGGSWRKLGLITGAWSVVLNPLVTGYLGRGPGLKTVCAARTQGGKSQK
Method: A cell-based aequorin assay may be employed to characterize the modulatory activity of compounds on the GPR40 signaling pathway. In an exemplary assay, CHO cells are transfected in a 15 cm plated containing 14 million cells with 5 μg of GPR40 expression vector and 5 μg of Aequorin expression vector (Euroscreen) using Lipofectamine 2000 (Invitrogen). After 17-24 hours post-transfection, cells are washed with phosphate buffered saline (PBS) and detached from the tissue culture dish with 2 mL of trypsin (0.25%(w/v)). Trypsinization is halted with 28 mL of Hanks Buffered Salt Solution containing 20 mM Hepes (H/HBSS) and 0.01% fatty acid-free bovine serum albumin (BSA) or 0.625% fatty acid-free human serum albumin (HSA). Coelantrazine is added to 1 ug/mL and the cells are incubated for 2 hours at room temperature. Cells are gently mixed every 15 minutes. Compounds are dissolved in dimethyl sulfoxide for preparation of 10 mM stock solutions. Compounds are diluted in H/HBSS containing either 0.01% BSA or 0.625% HSA. Serial dilutions of the test compounds are prepared to determine dose response.
Aequorin luminescence measurements are made using an EG&G Berthold 96-well luminometer and the response is measured over a 20 second interval after cells and compounds were mixed. The area-under-curve from 2-20 seconds is plotted to determine dose reponse. The EC50 (effective concentration to reach 50% maximal response) is determined from the dose response plot. […]
For CC#CC(Cc1nnn[nH]1)c1ccc(OCc2ccccc2C)cc1 (centres unmarked) [Compound 23, 5-{2-[4-(2-Methyl-benzyloxy)-phenyl]-pent-3-ynyl}-1H-tetrazole], the EC50 was 1000 to 10000 nM. CC#CC(CC(=O)O)c1ccc(OCc2ccccc2C)cc1 (centres unmarked) [Compound 17.6] gave an EC50 of 100 to 1000 nM. Compound CC#CC(CC(=O)O)c1ccc(OCc2csc(-c3ccccc3)n2)cc1 (centres unmarked) [Compound 8.2] has an EC50 of 10 to 100 nM. In the case of O=C(O)CC(c1ccccc1)c1ccc(OCc2cccc(Oc3ccccc3)c2)cc1 (centres unmarked) [Compound 84.1], the EC50 is reported as 10 to 100 nM. With O=C(O)C[C@H](NC(=O)c1ccccc1)c1ccc(OCc2cccc(Oc3ccc(F)cc3)c2)cc1 [Compound 88.3] the EC50 was > 10000 nM. For CC#CC(CC(=O)O)c1ccc(OCc2csc(-c3ccc(Cl)cc3)n2)cc1 (centres unmarked) [Compound 8.3], the EC50 was 10 to 100 nM. CN(C)[C@@H](CC(=O)O)c1ccc(OCc2cccc(Oc3ccc(F)cc3)c2)cc1 (stereo in doubt) [Compound 42.14, 3-Dimethylamino-3-{4-[3-(4-fluoro-phenoxy)-benzyloxy]-phenyl}-propionic acid] was tested, and the EC50 was 100 to 1000 nM. CC#CC(CC(=O)O)c1ccc(OCc2sc(-c3ccc(C)cc3)nc2C)cc1 (centres unmarked) [Compound 9.2] was tested, and the EC50 was < 10 nM. In the case of CC#CC(CC(=O)O)c1ccc(OCc2ccc(-c3ccncc3)cc2)cc1 (centres unmarked) [Compound 10.13], the EC50 is reported as 100 to 1000 nM. CC#CC(CC(=O)O)c1ccc(SCc2ccccc2C)cc1 (centres unmarked) [Compound 28, 3-[4-(2-Methyl-benzylsulfanyl)-phenyl]-hex-4-ynoic acid] gave an EC50 of 100 to 1000 nM. For O=C(O)CC1(c2ccc(OCc3cccc(-c4ccc(C(F)(F)F)cc4)c3)cc2)CC1 [Compound 89], the EC50 was 1000 to 10000 nM. COc1ccc(COc2ccc(C(C#Cc3ccccc3)CC(=O)O)cc2)cc1 (centres unmarked) [Compound 14.6] showed an EC50 of 1000 to 10000 nM. With O=C(O)C[C@H](NC(=O)Cc1ccccc1)c1ccc(OCc2cccc(Oc3ccc(F)cc3)c2)cc1 [Compound 88.4] the EC50 was > 10000 nM. With CC#CC(CC(=O)O)c1ccc(OCc2cccc(-n3cccc3)c2)cc1 (centres unmarked) [Compound 10.14] the EC50 was 10 to 100 nM. Work on CCC(CC(=O)O)c1ccc(OCc2ccc(OC)cc2)cc1 (centres unmarked) [Compound 14.3] yielded an EC50 of 1000 to 10000 nM. Compound CC#CC(CC(=O)NS(C)(=O)=O)c1ccc(OCc2ccc(OC)cc2)cc1 (centres unmarked) [Compound 81] has an EC50 of 1000 to 10000 nM. CC#CC(CC(=O)O)c1ccc(OCc2cccc(-c3ccc(C#N)cc3)c2)cc1 (centres unmarked) [Compound 6.7] gave an EC50 of 10 to 100 nM. With Cc1ccccc1COc1ccc(C(C#CC(C)C)CC(=O)O)cc1 (centres unmarked) [Compound 71] the EC50 was 100 to 1000 nM. CC#CC(CC(=O)O)c1ccc(OCc2ccc(-c3cccc(OCC)c3)cc2)cc1 (centres unmarked) [Compound 7.8] gave an EC50 of 100 to 1000 nM. CC#CC(CC(=O)O)c1ccc(OCc2cn(-c3ccc(Cl)cc3)nn2)cc1 (centres unmarked) [Compound 76] was tested, and the EC50 was 1000 to 10000 nM. With CC#CC(CC(=O)O)c1ccc(OCc2cccc(-c3cccc(C(F)(F)F)c3)c2)cc1 (centres unmarked) [Compound 6.9] the EC50 was 10 to 100 nM. CC#C[C@@H](CC(=O)O)c1ccc(OCc2ccc(OC)cc2)cc1 [Compound 39.7, (3S)-3-[4-(4-Methoxy-benzyloxy)-phenyl]-hex-4-ynoic acid] gave an EC50 of 10 to 100 nM. Compound CC#CC(CC(=O)O)c1ccc(OCc2cccc(-c3ccccc3)c2)cc1 (centres unmarked) [Compound 6.1] has an EC50 of 10 to 100 nM. With CC#CC(CC(=O)Nc1nccs1)c1ccc(OCc2ccc(OC)cc2)cc1 (centres unmarked) [Compound 24, 3-[4-(4-Methoxy-benzyloxy)-phenyl]-hex-4-ynoic acid thiazol-2-ylamide] the EC50 was 100 to 1000 nM. CC#CC(CC(=O)O)c1ccc(OCc2cccc(Oc3ccccc3)c2)cc1 (centres unmarked) [Compound 10.3] showed an EC50 of 10 to 100 nM. CC#CC(CC(=O)O)c1ccc(OCc2ccc(-c3ccccc3)cc2)cc1 (centres unmarked) [Compound 7.3] showed an EC50 of 1000 to 10000 nM. CC#CC(CC(=O)O)c1ccc(OCc2ccc(S(=O)(=O)c3ccccc3)cc2)cc1 (centres unmarked) [Compound 10.5] gave an EC50 of 100 to 1000 nM. Work on O=C(O)CC(c1ccc(Cl)cc1)c1ccc(OCc2cccc(Oc3ccccc3)c2)cc1 (centres unmarked) [Compound 84.5] yielded an EC50 of 100 to 1000 nM. With O=C(O)CC(c1ccc(OCc2cccc(Oc3ccccc3)c2)cc1)c1cccc(C(F)(F)F)c1 (centres unmarked) [Compound 85.2] the EC50 was 100 to 1000 nM. CC#CC(CC(=O)O)c1ccc(OCc2cccc(-c3ccncc3)c2)cc1 (centres unmarked) [Compound 10.10] showed an EC50 of 100 to 1000 nM. For O=C(O)CC(c1ccc(OCc2cccc(Oc3ccccc3)c2)cc1)c1cccc(Cl)c1 (centres unmarked) [Compound 84.6], the EC50 was 100 to 1000 nM. For Cc1ccccc1COc1ccc(C(C#CC2CC2)CC(=O)O)cc1 (centres unmarked) [Compound 72], the EC50 was 100 to 1000 nM. For CCC(=O)N[C@@H](CC(=O)O)c1ccc(OCc2cccc(Oc3ccc(F)cc3)c2)cc1 [Compound 88.2], the EC50 was > 10000 nM. For COc1cccc(/C=C/C(=O)Nc2ccc(N(CC(=O)O)c3ccccc3)cc2)c1 [Compound 82.6], the EC50 was < 10 nM. For C=CCC(CC(=O)O)c1ccc(OCc2ccc(OC)cc2)cc1 (centres unmarked) [Compound 34.4], the EC50 was 1000 to 10000 nM. CC(C)(C)OC(=O)N[C@@H](CC(=O)O)c1ccc(OCc2cccc(Oc3ccc(F)cc3)c2)cc1 [Compound 42.11, (S)-3-tert-Butoxycarbonylamino-3-{4-[3-(4-fluoro-phenoxy)-benzyloxy]-phenyl}-propionic acid] showed an EC50 of 100 to 1000 nM. Compound CC#CC(CC(=O)O)c1ccc(OCc2csc(-c3ccc(C(F)(F)F)cc3)n2)cc1 (centres unmarked) [Compound 8.1] has an EC50 of 10 to 100 nM. With O=C(O)CC(c1ccc(OCc2cccc(-c3ccc(C(F)(F)F)cc3)c2)cc1)n1cccn1 (centres unmarked) [Compound 62.3] the EC50 was 10 to 100 nM. COc1cccc(CN(Cc2cccc(OC)c2)c2ccc(N(CC(=O)O)c3ccccc3)cc2)c1 [Compound 82.1] was tested, and the EC50 was < 10 nM. With CC#CC(CC(=O)O)c1ccc(OCc2ccc(-c3cccnc3)cc2)cc1 (centres unmarked) [Compound 10.12] the EC50 was 1000 to 10000 nM. For CC(=O)N[C@@H](CC(=O)O)c1ccc(OCc2cccc(Oc3ccc(F)cc3)c2)cc1 [Compound 83], the EC50 was 1000 to 10000 nM. In the case of Cc1cnc(C(CC(=O)O)c2ccc(OCc3cccc(-c4ccc(C(F)(F)F)cc4)c3)cc2)s1 (centres unmarked) [Compound 70.1], the EC50 is reported as 1000 to 10000 nM. In the case of O=C(O)CC(c1ccc(OCc2cccc(Oc3ccccc3)c2)cc1)c1ccc(C(F)(F)F)cc1 (centres unmarked) [Compound 85.1], the EC50 is reported as 1000 to 10000 nM. With O=C(O)CN(c1ccccc1)c1ccc(NCc2cccc(Oc3ccccc3)c2)cc1 [Compound 82.3] the EC50 was < 10 nM. In the case of CC#CC(CC(=O)O)c1ccc(OCc2cnn(-c3ccc(F)cc3)c2C)cc1 (centres unmarked) [Compound 11.1], the EC50 is reported as 100 to 1000 nM. CC#CC(CC(=O)O)c1ccc(OCc2cccc(-c3cccnc3)c2)cc1 (centres unmarked) [Compound 10.9] showed an EC50 of 100 to 1000 nM. For O=C(O)CN(c1ccccc1)c1ccc(NC(=O)CCc2ccccc2)cc1 [Compound 82.5], the EC50 was < 10 nM. With COc1ccc(C(CC(=O)O)c2ccc(OCc3cccc(Oc4ccccc4)c3)cc2)cc1 (centres unmarked) [Compound 84.7] the EC50 was 100 to 1000 nM. Work on O=C(O)CC(c1ccc(F)cc1)c1ccc(OCc2cccc(-c3ccc(C(F)(F)F)cc3)c2)cc1 (centres unmarked) [Compound 46.1, 3-(4-fluorophenyl)-3-[4-(4′-trifluoromethyl-biphenyl-3-ylmethoxy)-phenyl]-propionic acid] yielded an EC50 of 100 to 1000 nM. Compound CC#CC(CC(=O)O)c1ccc(OCc2nn(-c3ccccc3)nc2C)cc1 (centres unmarked) [Compound 26, 3-[4-(5-Methyl-2-phenyl-2H-[1,2,3]triazol-4-ylmethoxy)-phenyl]-hex-4-ynoic acid] has an EC50 of 10 to 100 nM. CC#CC(CC(=O)O)c1ccc(OCc2cccc(-c3ccc(OCC)cc3)c2)cc1 (centres unmarked) [Compound 6.3] showed an EC50 of 10 to 100 nM. O=C(O)CC(c1ccc(OCc2cccc(-c3ccc(C(F)(F)F)cc3)c2)cc1)c1nccs1 (centres unmarked) [Compound 56] was tested, and the EC50 was 100 to 1000 nM. For CCCCOc1ccc(C)cc1-c1ccc(COc2ccc(C(CC(=O)O)c3ccnn3C)cc2)cc1 (centres unmarked) [Compound 66.5], the EC50 was 100 to 1000 nM. With COc1ccc(COc2ccc(C(C#C[Si](C)(C)C)CC(=O)O)cc2)cc1 (centres unmarked) [Compound 14.1] the EC50 was 1000 to 10000 nM. For CC(C)CN(CC(C)C)[C@@H](CC(=O)O)c1ccc(OCc2cccc(Oc3ccc(F)cc3)c2)cc1 [Compound 88.1], the EC50 was > 10000 nM. CC#C[C@H](CC(=O)O)c1ccc(OCc2ccc(OC)cc2)cc1 [Compound 40.5, (3R)-3-[4-(4-Methoxy-benzyloxy)-phenyl]-hex-4-ynoic acid] gave an EC50 of 1000 to 10000 nM. With COc1ccc(COc2ccc(C(C)CC(=O)O)cc2)cc1 (centres unmarked) [Compound 14.4] the EC50 was > 10000 nM. In the case of OC(O)CC(c1ccc(OCc2cccc(-c3ccc(C(F)(F)F)cc3)c2)cc1)C1CC1 (centres unmarked) [Compound 91], the EC50 is reported as 1000 to 10000 nM. COc1cccc(CNc2ccc(N(CC(=O)O)c3ccccc3)cc2)c1 [Compound 82.2] was tested, and the EC50 was < 10 nM. Compound CC#CC(CC(=O)O)c1ccc(OCc2cccc(-c3ccccn3)c2)cc1 (centres unmarked) [Compound 10.8] has an EC50 of 100 to 1000 nM. CC#CC(CC(=O)O)c1ccc(OCc2cccc(N(CC)c3ccccc3)c2)cc1 (centres unmarked) [Compound 10.2] gave an EC50 of 10 to 100 nM. CC#C[C@@H](CC(=O)O)c1ccc(OCc2csc(-c3ccc(C(F)(F)F)cc3)n2)cc1 [Compound 80] was tested, and the EC50 was < 10 nM. For Cc1ccc(C(CC(=O)O)c2ccc(OCc3cccc(Oc4ccccc4)c3)cc2)cc1 (single isomer, unassigned) [Compound 84.3], the EC50 was 100 to 1000 nM. CC#CC(CC(=O)O)c1ccc(OCc2ccc(OC)cc2)cc1 (racemic) [Compound 12, (±)-3-(4-[(4-methoxyphenyl)methoxy]phenyl)-hex-4-ynoic acid] gave an EC50 of 100 to 1000 nM. Work on COCC#CC(CC(=O)O)c1ccc(OCc2ccc(OC)cc2)cc1 (centres unmarked) [Compound 14.5] yielded an EC50 of 1000 to 10000 nM.
